Test [1] deals with endogenous thrombin potential in normal donor plasma (PPP). The test can be described thus: Thrombin generation test (endogenous thrombin potential) in normal donor plasma. The test is classed as biochemical. To be noted: read-out: IC50 (50% reduction in endogenous thrombin potential). An excerpt: This method was described in detail in many papers (Hemker H C, Giesen P L, Ramjee M, Wagenvoord R, Beguin S. The thrombogram: monitoring thrombin generation in platelet-rich plasma. Thromb. Haemost., 2000; 83(4): 589-591; Hemker H C, AlDieri R, Beguin S. Thrombin generation assays: accruing clinical relevance. Curr. Opin. Hematol., 2004, 11(3):170-175; Hemker H C, Giesen P, AlDieri R, Regnault V, de Smed E, Wagenvoord R, Lecompte T, Beguin S. The calibrated automated thrombogram (CAT): a universal routine test for hyper- and hypocoagulability. Pathophysiol. Haemost. Thromb., 2002, 32(5-6):249-253). The test is used to measure the kinetics and total quantity of active thrombin generated in a plasma sample over a specified time at a standard clotting activation level in the sample. These applicants' method is suitable for measuring thrombin concentration using a slow-action fluorogenic substrate (BOC-Ile-Gly-Arg-AMC), which gives a highly fluorescent product, 7-amino-4-methylcoumarin (AMC), when broken d own by thrombin. The use of a fluorogenic, rather than chromogenic, substrate is dictated by the fact that the fluorescence level in the sample is virtually unaffected by the solid fibrin clot formed in the metering cell, but this is a qualification that restricts the application of a chromogenic substrate (Hemker H C, Giesen P, AlDieri R, Regnault V, de Smed E, Wagenvoord R, Lecompte T, Beguin S. The calibrated automated thrombogram (CAT): a universal routine test for hyper- and hypocoagulability. Pathophysiol. Haemost. Thromb., 2002, 32(5-6):249-253). On the other hand, it is common knowledge that the bulk of thrombin (about 95%) in the sample is generated after the first clot has already formed (Hemker H C, AlDieri R, Beguin S. Thrombin generation assays: accruing clinical relevance. Curr. Opin. Hematol., 2004, 11(3):170-175).
The kinetics of thrombin generation and ultimately loss in plasma after clotting activation is shown in FIG. 1, which illustrates the relationship between concentration of active thrombin in a plasma sample and time. The area under the thrombin generation time curve (in this invention, from 0 to 50 minutes of incubation) is called endogenous thrombin potential (ETP). The curve is further characterized by tmax, the time when thrombin in the sample reaches maximum concentration, Amax, the maximum thrombin concentration in the system, and tlag, the time before clotting commencement, which is conventionally the time when thrombin reaches a concentration of 5 nM.
Obviously, important clotting information is contained in the shape of thrombin concentration to time curves, as well as the integral ETP level. In particular, against the background of low factor and clotting inhibitor concentration, thrombin concentration maximums can be lower and also broader, although the total ETP might not change at all. The presence of additional thrombin inhibitors in plasma must reduce ETP and maximum attainable thrombin concentration, and increase the clotting lag and the time required for thrombin to achieve maximum concentration.
Measurements were taken as follows: 90 microliters of normal donor plasma (PPP), 0 to 20 microliters of the test substance solution, and 20 to 0 microliters of buffering solution (20 mM of HEPES, 140 mM of NaCal, pH 7.5) were deposited in the holes of a 96 hole board so that the total volume of added substance and buffer is always 20 microliters. Whereupon 20 microliters of a fluorogenic substrate solution (at 5 mM initial concentration) was added to each of the board holes, and plasma was heated for 3 to 5 minutes at 37° C. Next, 25 microliters of a clotting activator solution was added simultaneously (using a multichannel pipette) to all the holes. A thromboplastin solution prepared from a standard thromboplastin reagent diluted to 1/250th of its original concentration by the same buffer further containing 80 mM of CaCl2 to measure the prothrombin time (PT) (RENAM, Russia) was used as activator. […]

For test [2], the system named is endogenous thrombin potential in diluted donor platelet-free plasma. Nature of the test: ETP in plasma diluted with NaCl 0.9% plasma-substituting solution containing inhibitor. It is filed as biochemical. The note with it: 0.25-0.5 mcM in NaCl 0.9% solution; plasma diluted at a ratio of 1.5 to 4, FIG. 12. How it is done: Donor blood prepared on a 3.8% sodium citrate at a 9:1 ratio of blood to citrate (20 ml) was centrifuged for 15 minutes at 1,300 g. Some of the platelet-poor plasma (PPP) was centrifuged for another 10 minutes at 10,000 g to obtain a platelet-free plasma (PFP). The PFP thus produced was then used for measuring the endogenous thrombin potential.
PFP was diluted at a ratio of 1.5, 2, 3 and 4 with either transfusion-grade physiological saline (NaCl 0.9%) or with the same solution containing additionally a thrombin inhibitor HC-025s-IOC (at concentrations of 0.25, 0.5 or 1 mcM). For constant concentration of Ca^+2 to be maintained through the tests after recalcification, sodium citrate concentration was maintained constant in all plasma dilutions to be identical to the concentration in initial undiluted plasma, for which purpose the initial plasma-substituting solutions used to dilute the plasma were first mixed with 3.8% sodium citrate similarly with initial blood at a 9:1 solution to citrate ratio.
The plasma sample used in the above-described ETP measurement method was always diluted at a 1.5 ratio throughout. An opportunity must be provided to measure ETP in undiluted plasma in experiments to dilute plasmas with PSS. […] Endogenous thrombin potential was measured for each of the diluted plasmas in the presence of different concentrations of HC-025s-IOC.

SMILES strings stand for the structures.

For orientation: IC50 means the point on the concentration scale where inhibition reaches its midpoint. In the case of `Cc1cc(OCC[n+]2ccc(N)cc2)cc(OS(=O)(=O)c2ccccc2Cl)c1.[I-]` [HC-025s-IOC, 4-amino-1-(2-(3-methyl-5-(2-chlorobenzenesulfonyloxy)phenoxy)ethyl)-pyridinium iodide], the IC50 in test [1] is 260 nM. For the same molecule, the “ETP readings for different plasma dilutions” value in test [2] is reported as “closest thing to normal”.
